The text below walks through data of PubChem BioAssay (NCI).

Among the test systems are COLO 205 colon; EKVX NSCLC; HCT-116 colon; HOP-62 NSCLC; MOLT-4 leukemia; OVCAR-5 ovarian; RPMI-8226 leukemia; SK-OV-3 ovarian; SNB-75 CNS; SW-620 colon.
What all share (assay): inhibition of tumour cell growth, NCI panel, 48 h

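Five compound concentrations were applied to cells in 96-well plates for 48 hours; endpoints were derived by simple linear interpolation of the resulting dose-response curve. GI50 = concentration required for 50% inhibition of growth. TGI marks complete inhibition of growth.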 A value given as a limit tells only on which side of the number the result lay.

Take `CCN(CC)CCNc1ccc([N+](=O)[O-])c2nc3ccc(OC)cc3c(N)c12`: the TGI in the assay on COLO 205 colon was determined as 1.65 µM; in the assay with EKVX NSCLC, 3.28 µM; with HCT-116 colon, 0.284 µM; with HOP-62 NSCLC it was 3.74 µM; with MOLT-4 leukemia it was 1.61 µM; with OVCAR-5 ovarian it was 3.15 µM. Besides, the TGI with RPMI-8226 leukemia was 0.704 µM; with SK-OV-3 ovarian, 3.58 µM; with SNB-75 CNS, 3.64 µM; in the assay on SW-620 colon it was 0.772 µM.

With `CN(C)CCOc1ccc2c(c1)C(=O)/C(=C\c1ncc([N+](=O)[O-])n1C)C2`, the GI50 is 0.25 µM in the assay with COLO 205 colon; 0.711 µM with EKVX NSCLC; 0.316 µM in the assay with HCT-116 colon; 1.59 µM in the assay on HOP-62 NSCLC; 0.358 µM in the assay with MOLT-4 leukemia; 2.02 µM with OVCAR-5 ovarian. Also, the GI50 in the assay with RPMI-8226 leukemia is 2.14 µM; with SK-OV-3 ovarian, 0.923 µM; with SNB-75 CNS, 0.474 µM; in the assay on SW-620 colon, 0.474 µM. Besides, the TGI worked out at 0.628 µM in the assay on COLO 205 colon; 3.83 µM in the assay on EKVX NSCLC; 1.28 µM in the assay with HCT-116 colon; 4.34 µM in the assay on HOP-62 NSCLC; 1.65 µM in the assay with MOLT-4 leukemia; 5.7 µM with OVCAR-5 ovarian. Besides, the TGI with RPMI-8226 leukemia was 14.4 µM; in the assay on SK-OV-3 ovarian, 3.21 µM; in the assay on SNB-75 CNS it was 1.98 µM; with SW-620 colon, 4.22 µM.

For `N#Cc1cc2c(cc1Cl)SC(=Nc1ccccc1)N(S(=O)(=O)c1ccc(Br)s1)S2(=O)=O`, the GI50 in the assay on COLO 205 colon is 49.1 µM; in the assay on EKVX NSCLC it was 19.5 µM; in the assay on HCT-116 colon it was 15.9 µM; with HOP-62 NSCLC it was 19.1 µM; with MOLT-4 leukemia, 15.9 µM; with OVCAR-5 ovarian, 19.7 µM. Also, the GI50 in the assay on RPMI-8226 leukemia was 23.6 µM; in the assay with SK-OV-3 ovarian it was 39.6 µM; in the assay on SNB-75 CNS, 24 µM; in the assay on SW-620 colon, 18.9 µM. Moreover, the TGI is over 100 µM in the assay with COLO 205 colon; 35.1 µM in the assay on EKVX NSCLC; 33.7 µM with HCT-116 colon; 35.9 µM in the assay on HOP-62 NSCLC; 46.2 µM with MOLT-4 leukemia; 39.2 µM in the assay on OVCAR-5 ovarian. In addition, the TGI with RPMI-8226 leukemia is 67.6 µM; in the assay on SK-OV-3 ovarian, over 100 µM; with SNB-75 CNS it was 51.7 µM; in the assay with SW-620 colon it was 40 µM.

As for `COC(=N)CCCl`, the TGI in the assay on COLO 205 colon, in the assay with EKVX NSCLC, in the assay on HCT-116 colon, in the assay with HOP-62 NSCLC, in the assay with MOLT-4 leukemia and in the assay on OVCAR-5 ovarian was over 100 µM throughout. Besides, the TGI in the assay on RPMI-8226 leukemia, in the assay with SK-OV-3 ovarian, in the assay with SNB-75 CNS and in the assay on SW-620 colon was over 100 µM each time.

`COc1ccc2c(c1)[nH]c1c3ccc(OC)cc3oc(=O)c21`: the TGI with COLO 205 colon, in the assay with EKVX NSCLC, with HCT-116 colon, with HOP-62 NSCLC, in the assay on MOLT-4 leukemia and in the assay with OVCAR-5 ovarian was over 100 µM throughout. Also, the TGI in the assay with RPMI-8226 leukemia, with SK-OV-3 ovarian, with SNB-75 CNS and in the assay on SW-620 colon was over 100 µM in each case.

Turning to `Nc1ccn(C2CC3OCC3O2)c(=O)n1` (stereo not given), the TGI in the assay with COLO 205 colon, in the assay with EKVX NSCLC, in the assay with HCT-116 colon, in the assay on HOP-62 NSCLC, with MOLT-4 leukemia and in the assay with OVCAR-5 ovarian was over 100 µM each time. Besides, the TGI in the assay with RPMI-8226 leukemia, in the assay on SK-OV-3 ovarian, in the assay with SNB-75 CNS and in the assay with SW-620 colon was over 100 µM in each case.

As for `O=C1C=CC(=O)c2c(O)c(N(CCCl)CCCl)c(Cl)c(O)c21`, the TGI was 5.57 µM with COLO 205 colon; over 10 µM with EKVX NSCLC; 5.68 µM in the assay with HCT-116 colon; over 10 µM in the assay with HOP-62 NSCLC; over 10 µM in the assay on MOLT-4 leukemia; over 9.1 µM with OVCAR-5 ovarian. Further, the TGI was over 10 µM in the assay on RPMI-8226 leukemia, over 10 µM in the assay on SK-OV-3 ovarian, over 10 µM in the assay with SNB-75 CNS and 6.56 µM in the assay on SW-620 colon.

For the molecule `CN1C/C(=C\c2ccc(C(=O)O)cc2)C(=O)/C(=C/c2ccc(C(=O)O)cc2)C1`, the TGI in the assay with COLO 205 colon, in the assay with EKVX NSCLC, in the assay on HCT-116 colon, in the assay on HOP-62 NSCLC, in the assay with MOLT-4 leukemia and in the assay on OVCAR-5 ovarian was over 100 µM throughout. The TGI in the assay on RPMI-8226 leukemia, in the assay on SK-OV-3 ovarian, with SNB-75 CNS and with SW-620 colon was over 100 µM in each case.

`COc1ccc(C2C3=C(COC3=O)N(CCO)c3cc4c(cc32)CCC4)cc1` (stereo not given): the GI50 was 6.2 µM with COLO 205 colon; 13.5 µM in the assay with EKVX NSCLC; 2.12 µM in the assay with HCT-116 colon; 9.02 µM in the assay with HOP-62 NSCLC; 2.2 µM with MOLT-4 leukemia; over 50 µM with OVCAR-5 ovarian. Besides, the GI50 was 11.4 µM with RPMI-8226 leukemia, 8.78 µM in the assay with SK-OV-3 ovarian, 1.46 µM in the assay with SNB-75 CNS and 2.17 µM with SW-620 colon. Also, the TGI in the assay with COLO 205 colon, in the assay on EKVX NSCLC, with HCT-116 colon, in the assay with HOP-62 NSCLC, with MOLT-4 leukemia and in the assay with OVCAR-5 ovarian was over 50 µM in each case. Further, the TGI in the assay on RPMI-8226 leukemia was over 50 µM; in the assay on SK-OV-3 ovarian it was over 50 µM; in the assay on SNB-75 CNS, 13.7 µM; with SW-620 colon, over 50 µM.
